Patent US5504105A, “Pharmaceutical compositions containing ipriflavone, process for the preparation thereof and relative therapeutic use” (priority 1990, dated 1996)

What was measured:
[1] = In-vivo bioavailability test: urinary excretion, capsules vs tablets, 8 healthy adult volunteers; design: species or system healthy adult volunteers (human); conditions: first study
Experimental: Concomitant drug treatment was avoided.
Urine was collected over the 24 hour period before treatment and on the tenth and eleventh days over the periods 0-24 hours and 24-48 hours after the assumption of the last dose. A homogenous sample (10 ml approx.) was prepared from the total urine excreted on the tenth and eleventh days; this sample was then stored at -20° C. until analised by HPLC.
The pharmacokinetic data were compared with those obtained administering an equivalent dose of ipriflavone in the standard formulation of 200 mg tablets three times daily (total dose 600 mg) according to an analogous study protocol.

[2] = human, in vivo
Experimental: (§1) In this comparative study all the conditions that could influence in some measure the bioavailability behaviour such as meals, drug administration or samples collection were strictly standardized.
(§2) The study was carried out in twelve young healthy volunteers in good health.
(§3) All the subjects were on a standard diet for all the period of the study.
(§4) For each treatment, after an overnight fast, each subject received at 8:00 a.m. on Day 1 the first oral dosing. From Day 1 to Day 10 the daily doses were administered during the meals. The two different treatments (A and B) were the following:
(§5) Treatment A: one 200 mg Ipriflavone Tablet 3 times daily at 8:00 a.m. , 1:00 p.m. and 8:00 p.m.;
(§6) Treatment B: one 300 mg Ipriflavone Scherer capsule two times daily at 8:00 a.m. and 8:00 p.m.

[3] = Further comparative bioavailability study: urinary excretion, treatments A and B, twelve healthy volunteers; format: in vivo, young healthy volunteers (human); conditions: each treatment, second study
Experimental: as §1, §2, §3, §4, §5, §6

[4] = in vivo; cited from earlier work
[5] = cited from earlier work

unchanged ipriflavone in urine [1]: no detectable levels
mean increment in bioavailability [2]: 35%
SMILES: CC(C)Oc1ccc2c(=O)c(-c3ccccc3)coc2c1 [Ipriflavone]
plasma levels / metabolization in man [2]: could not be quantified in several subjects
unchanged ipriflavone in urine [3]: no unchanged ipriflavone levels were found
effectiveness in osteoporosis [4]: effective in preventing and treating post-menopausal and senile osteoporosis
half-life ([5]; human, in vivo, po): 9.8 h
peak plasma concentration of the unchanged drug ([5]; human, in vivo, po): 170 ng/mL
time to peak plasma concentration after administration ([5]; human, in vivo, po): 1.3 h
absorption and metabolism in man ([5]; oral, man): absorbed rapidly and, furtherly, extensively metabolised equally rapidly
